# Assays:
# [1] = system: synthesis of LTB4 in human whole blood; assay: Human whole blood assay (inhibition of LTB4 synthesis, calcimycin stimulated); format: cell-based; settings: heparinized human whole blood, calcimycin 20 μM, plasma LTB4
# Method: Compounds are additionally tested in a human whole blood assay to determine their ability to inhibit the synthesis of LTB4 in a cellular system. Compounds are combined with heparinized human whole blood and incubated for 15 minutes at 37° C. Calcimycin (20 μM final, prepared in phosphate-buffered saline, pH 7.4) is then added and the mixture is incubated for another 30 minutes at 37° C. The samples are centrifuged for 5 min at low speed (1500×g) and the plasma layer is removed. Plasma LTB4 concentrations are then measured using an antibody-based homogenous time-resolved fluorescence method (CisBio, Bedford, Mass.).
# [2] = target: T1, recombinant human FLAP protein (Homo sapiens, UniProt P20292); assay: FLAP binding assay (SPA, displacement of [125I]L-691,831); settings: membranes of sf9 cells expressing recombinant human FLAP; [125I]L-691,831 probe; read-out: FLAP binding IC50
# T1 construct: made in house; host or cells: Sf9 insect cells (100,000×g membrane pellet used)
# T1 sequence (P20292 1-161): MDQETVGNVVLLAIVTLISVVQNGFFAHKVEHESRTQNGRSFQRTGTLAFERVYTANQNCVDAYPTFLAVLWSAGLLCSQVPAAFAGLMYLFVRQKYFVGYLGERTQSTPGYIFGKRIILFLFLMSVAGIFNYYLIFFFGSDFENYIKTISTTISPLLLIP
# Method: Assessment of Biological Properties 1. Binding Assay
# Compounds are assessed for the ability to bind to FLAP in a binding assay that measures compound-specific displacement of an iodinated (^125I) FLAP inhibitor via a Scintillation Proximity Assay format (adapted from S. Charleson et al., Mol. Pharmacol., 1992, 41, 873-879).
# Cell pellets produced from sf9 insect cells expressing recombinant human FLAP protein are resuspended in buffer A [15 mM Tris-HCl (pH 7.5), 2 mM MgCl2, 0.3 mM EDTA, 1 mM PMSF]. The cells are lysed with a Dounce homogenizer and the material is centrifuged at 10,000×g for 10 minutes. The supernatant is then collected and centrifuged at 100,000×g for 60 minutes. To prepare membrane protein for an assay, an aliquot of the 100,000×g pellet is resuspended in 1 ml of buffer A, Dounce homogenized, and finally subjected to polytron mixing (30 seconds). Membrane protein (25 μl, 5 μg) is mixed with WGA SPA beads (Amersham) and stirred for 1 h. […] (final concentrations: beads, 200 μg/well; protein, 5 μg/well; [^125I] probe, 0 08 nM/well (17 nCi/well). The plates are shaken for 2 h before reading on a Microbeta plate reader. Non-specific binding is determined by the addition of 10 μM cold L-691,831 compound.
Structure (SMILES),IC50 [1] [µM],IC50 [2] [µM]
"Cn1cc(-c2nc([C@@](C)(c3ccc(-c4cnc(N)nc4)cc3)C3CCC3)no2)cn1 [Example 121, 5-(4-{(1R)-1-cyclobutyl-1-[5-(1-methyl-1H-pyrazol-4-yl)-1,2,4-oxadiazol-3-yl]ethyl}phenyl)pyrimidin-2-amine]",0.091,0.0026
"C[C@@](c1ccc(-c2cnc(N)nc2)cc1)(c1noc(-c2cnc(N3CCNCC3)cn2)n1)C1CC1 [Example 196, 5-(4-{(R)-1-Cyclopropyl-1-[5-(3,4,5,6-tetrahydro-2H-[1,2′]bipyrazinyl-5′-yl)-[1,2,4]oxadiazol-3-yl]-ethyl}-phenyl)-pyrimidin-2-ylamine]",0.18,0.0022
"CN(C)C(=O)Cn1cc(-c2nc(C(C)(c3ccc(-c4ccc(N)nc4F)cc3)C3CC3)no2)cn1 (stereo not drawn) [Example 278, 2-[4-(3-{1-[4-(6-Amino-2-fluoro-pyridin-3-yl)-phenyl]-1-cyclopropyl-ethyl}-[1,2,4]oxadiazol-5-yl)-pyrazol-1-yl]-N,N-dimethyl-acetamide]",0.15,0.005
"CC(C)(O)Cn1cc(-c2nc([C@@](C)(c3ccc(-c4cnc(N)nc4)cc3)C3CC3)no2)cn1 [Example 174, 1-[4-(3-{(R)-1-[4-(2-Amino-pyrimidin-5-yl)-phenyl]-1-cyclopropyl-ethyl}-[1,2,4]oxadiazol-5-yl)-pyrazol-1-yl]-2-methyl-propan-2-ol]",0.019,0.0012
"Cc1nc(-c2ccc([C@](C)(c3noc(-c4cnn(CC(C)(C)O)c4)n3)C3CC3)cc2)cnc1N [Example 180, 1-[4-(3-{(R)-1-[4-(5-Amino-6-methyl-pyrazin-2-yl)-phenyl]-1-cyclopropyl-ethyl}-[1,2,4]oxadiazol-5-yl)-pyrazol-1-yl]-2-methyl-propan-2-ol]",0.029,0.0029
"CC(C)C(C)(c1ccc(-c2cnc(N)nc2)cc1)c1noc(CCC(C)(C)C(=O)O)n1 (stereo not drawn) [Example 85, 4-(3-{2-[4-(2-aminopyrimidin-5-yl)phenyl]-3-methylbutan-2-yl}-1,2,4-oxadiazol-5-yl)-2,2-dimethylbutanoic acid]",> 5,0.048
"CC(C)C(C)(c1ccc(-c2cnc(N)nc2)cc1)c1noc(C2CCNCC2)n1 (stereo not drawn) [Example 110, 5-(4-{3-methyl-2-[5-(piperidin-4-yl)-1,2,4-oxadiazol-3-yl]butan-2-yl}phenyl)pyrimidin-2-amine]",2.8,0.19
"CC(C)C(C)(c1ccc(-c2cnc(N)nc2)cc1)c1noc(-c2ccn(C)n2)n1 (stereo not drawn) [Example 14, 5-(4-{3-methyl-2-[5-(1-methyl-1H-pyrazol-3-yl)-1,2,4-oxadiazol-3-yl]butan-2-yl}phenyl)pyrimidin-2-amine]",0.14,0.0046
"CC(C)C(C)(c1ccc(-c2cnc(N)nc2)cc1)c1noc(C2CCCC(=O)N2)n1 (stereo not drawn) [Example 167, 6-(3-{2-[4-(2-aminopyrimidin-5-yl)phenyl]-3-methylbutan-2-yl}-1,2,4-oxadiazol-5-yl)piperidin-2-one]",4.3,0.046
"Cc1nc(-c2ccc([C@](C)(c3noc(-c4cnn(C)c4)n3)C3CC3)cc2)cnc1N [Example 187, 5-(4-{(R)-1-Cyclopropyl-1-[5-(1-methyl-1H-pyrazol-4-yl)-[1,2,4]oxadiazol-3-yl]-ethyl}-phenyl)-3-methyl-pyrazin-2-ylamine]",0.023,0.017
"CC(C)C(C)(c1ccc(-c2cnc(N)nc2)cc1)c1noc(CCC(=O)O)n1 (stereo not drawn) [Example 94, 3-(3-{2-[4-(2-aminopyrimidin-5-yl)phenyl]-3-methylbutan-2-yl}-1,2,4-oxadiazol-5-yl)propanoic acid]",> 5,0.35
"CC(C)C(C)(c1ccc(-c2cnc(N)nc2)cc1)c1noc(N2C3CCC2CC(O)C3)n1 (stereo not drawn) [Example 235, 8-(3-{1-[4-(2-Amino-pyrimidin-5-yl)-phenyl]-1,2-dimethyl-propyl}-[1,2,4]oxadiazol-5-yl)-8-aza-bicyclo[3.2.1]octan-3-ol]",0.78,0.029

# — patent US8658661B2, “Oxadiazole inhibitors of leukotriene production” (Boehringer Ingelheim International GmbH, priority 2010, dated 2014)
